Test [1] deals with rat 5-HT2B receptor (Rattus norvegicus, UniProt P30994). In words: biochemical. Type of test: binding.
In test [2] the target is T1, Human 5-HT2B (Homo sapiens, UniProt P41595).
T1 construct: expressed in transfected cells
In words: [3H]Serotonin radioligand binding, human 5-HT2B.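 Also: competition of tritiated serotonin binding to cell membranes, bound radioactivity on filters counted by liquid scintillation, IC50 from logistic fits converted to Ki with the Cheng-Prusoff equation.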

Test [3] concerns the target Human 5-HT2A (Homo sapiens, UniProt P28223). As to the kind of experiment: [125I]DOI radioligand binding, human 5-HT2A.
The subject of test [4] is distal colon. In words: Functional in vitro assay: antagonism of serotonin contraction of rat distal colon longitudinal muscle. To be noted: vs serotonin. The source says:
Functional In vitro Assay:
Sprague-Dawley rats (200-250g; Laboratory Supply, Indianapolis, Ind.) were sacrificed by cervical dislocation and 8 cm segment of distal colon was removed and washed in ice cold modified Kreb's solution of the following composition (millimolar): Nacl, 118.2; Kcl, 4.6; Cacl2. H2 O, 1.6; KH2 PO4, 1.2; MgSO4, 1.2; dextrose, 10.0; and NaHCO3, 24.8. The colon was mounted on a glass rod and the longitudinal muscle layer with attached myenteric plexi was removed and mounted in organ baths, containing above described Kreb's solution maintained at 37° C. and equilibrated with 95% O2 and 5% CO2. Tissues were placed under 2 g tension and allowed to stabilize for 1 hour. Isometric contractions were recorded as changes in grams of force using grass FT03 transducers and MI^2 - computerized dynograph system. Cumulative concentration-response curves for serotonin were obtained by a stepwise increase in concentration after washing out the preceding concentration for 10-15 minutes. Each agonist concentration remained in contact with the tissue for 5 minutes. Maximum response to each concentration was determined and digitized. EC50 values were taken as the concentration of agonist that produced half maximal contraction. After control responses were obtained, tissues were incubated with an appropriate concentration of antagonist for 15 minutes. Response to serotonin were then repeated in the presence of an antagonist. Concentration-response utilized only one concentration of antagonist per tissue. Apparent antagonist dissociation constants (KB) were determined for each concentration of antagonist according to the following equation:
KB =[B]/(dose ratio-1), where [B] is the concentration of the antagonist and dose ratio is the ED50 of the agonist in the presence of antagonist divided by the control ED50. The results were expressed as the negative logarithm of the KB (i.e., -log KB) (Br. J. Pharmacol. Methods 4:4165, (1980).
The functional in vitro method described supra. was used to test compounds of this invention. Values are expressed as pKi and pA2 (-log KB). The following table illustrates the results obtained when the compounds were tested using the Radioligand assay supra. (pKi) and the functional in vitro method described supra. (pA2)

Test [5] deals with Rat 5-HT2A (Rattus norvegicus, UniProt P14842). In words: [125I]DOI radioligand binding, rat 5-HT2A. To be noted: AVG.
Rat 5-HT2A, sequence (P14842 whole entry): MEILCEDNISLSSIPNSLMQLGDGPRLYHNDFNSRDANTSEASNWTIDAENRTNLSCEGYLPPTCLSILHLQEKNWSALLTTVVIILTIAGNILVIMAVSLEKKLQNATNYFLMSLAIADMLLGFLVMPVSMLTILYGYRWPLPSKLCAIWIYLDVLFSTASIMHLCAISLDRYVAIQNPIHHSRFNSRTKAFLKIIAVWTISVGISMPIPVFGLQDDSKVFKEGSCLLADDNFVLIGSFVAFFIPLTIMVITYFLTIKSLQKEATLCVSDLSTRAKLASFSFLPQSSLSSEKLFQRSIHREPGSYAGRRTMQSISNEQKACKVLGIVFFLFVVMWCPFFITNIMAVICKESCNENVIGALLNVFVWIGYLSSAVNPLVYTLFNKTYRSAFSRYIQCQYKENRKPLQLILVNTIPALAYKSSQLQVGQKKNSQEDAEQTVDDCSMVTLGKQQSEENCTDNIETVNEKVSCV
In test [6] the target is 5-HT2B receptor (rat stomach fundus) (Rattus norvegicus, UniProt P30994). To be noted: rat stomach fundus; vs serotonin; ± standard error; read-out: 5-HT2B (Fundus) -log KB (converted).
5-HT2B receptor (rat stomach fundus), sequence (P30994 whole entry): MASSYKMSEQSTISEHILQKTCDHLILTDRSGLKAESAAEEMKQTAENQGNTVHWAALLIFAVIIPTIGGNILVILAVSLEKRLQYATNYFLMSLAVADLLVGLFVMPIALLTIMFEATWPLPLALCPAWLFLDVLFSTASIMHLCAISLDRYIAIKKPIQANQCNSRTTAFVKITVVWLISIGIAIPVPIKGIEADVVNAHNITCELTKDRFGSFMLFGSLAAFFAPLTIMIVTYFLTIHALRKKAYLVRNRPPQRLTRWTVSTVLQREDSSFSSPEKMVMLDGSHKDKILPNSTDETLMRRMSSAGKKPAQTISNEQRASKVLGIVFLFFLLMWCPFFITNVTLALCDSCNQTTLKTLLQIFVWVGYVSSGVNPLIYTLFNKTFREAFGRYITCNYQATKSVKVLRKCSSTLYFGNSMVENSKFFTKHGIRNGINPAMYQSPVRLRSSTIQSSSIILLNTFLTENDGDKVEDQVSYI
[7] abbreviates: [3H]Serotonin, 5-HT2B cells, AVG, read-out: Ki Human 5-HT2B.
Setting [8] is: read-out: Ki Human 5-HT2A, [125I]DOI, AVG.
The mark [9] stands for this setting: [3H]Serotonin, 5-HT2B cells, AVG, read-out: Ki Rat 5-HT2B.
Where [10] appears, read: Ki Rat 5-HT2B, [3H]Serotonin, 5-HT2B cells, AVG.
The mark [11] stands for this setting: [125I]DOI, AVG, read-out: Ki Human 5-HT2A.

Like-named read-outs stand apart in the source and are kept apart here.
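For 5-HT2B (Fundus) -log KB in this document: isometric contraction of isolated male Wistar rat stomach fundus strips, serotonin concentration-response curves after antagonist incubation, KB from dose ratio of agonist potency versus control curve.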
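For Ki Rat 5-HT2B in this document: displacement of [3H]5-HT from membranes of suspension cells carrying cloned rat 5-HT2B receptor, incubated 15 min at 37 °C or 2 h at 0 °C, filter-bound radioactivity counted by scintillation.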

rat 5-HT2B receptor, sequence (P30994 whole entry): as above
T1 sequence (P41595 whole entry): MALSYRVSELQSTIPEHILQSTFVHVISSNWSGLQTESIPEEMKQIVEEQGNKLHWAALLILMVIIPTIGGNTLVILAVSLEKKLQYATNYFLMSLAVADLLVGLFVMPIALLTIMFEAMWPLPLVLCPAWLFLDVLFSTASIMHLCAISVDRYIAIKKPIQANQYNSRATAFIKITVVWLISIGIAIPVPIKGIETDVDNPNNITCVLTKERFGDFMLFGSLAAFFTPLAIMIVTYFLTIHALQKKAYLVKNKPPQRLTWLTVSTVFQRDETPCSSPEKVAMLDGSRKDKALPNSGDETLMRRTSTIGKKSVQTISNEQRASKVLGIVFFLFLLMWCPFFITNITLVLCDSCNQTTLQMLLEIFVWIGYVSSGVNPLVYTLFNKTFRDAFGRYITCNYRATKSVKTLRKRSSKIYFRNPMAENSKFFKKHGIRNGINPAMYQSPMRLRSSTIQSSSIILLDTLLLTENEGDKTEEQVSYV
Human 5-HT2A, sequence (P28223 whole entry): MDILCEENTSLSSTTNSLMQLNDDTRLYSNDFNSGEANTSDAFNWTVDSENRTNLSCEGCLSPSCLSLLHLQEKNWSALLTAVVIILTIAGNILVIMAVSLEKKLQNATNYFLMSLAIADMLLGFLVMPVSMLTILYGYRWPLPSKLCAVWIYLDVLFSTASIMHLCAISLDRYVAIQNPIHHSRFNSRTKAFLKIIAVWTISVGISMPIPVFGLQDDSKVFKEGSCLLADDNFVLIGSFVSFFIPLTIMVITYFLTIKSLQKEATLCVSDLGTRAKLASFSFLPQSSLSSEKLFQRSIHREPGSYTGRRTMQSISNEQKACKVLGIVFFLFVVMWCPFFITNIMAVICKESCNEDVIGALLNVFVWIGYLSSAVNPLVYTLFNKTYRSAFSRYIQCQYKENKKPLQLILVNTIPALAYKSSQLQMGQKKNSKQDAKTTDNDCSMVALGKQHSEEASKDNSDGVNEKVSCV

Turning to `CCCN(CCC)C1CCc2cccc(-c3ccno3)c2C1` (single isomer, unassigned), the Ki in test [1] (read-out: Ki Rat 5-HT2B, [3H]Serotonin, 5-HT2B cells, AVG) came out at 0.0793 µM; in test [2] (setting [7]), 0.215 µM; in test [3] (setting [8]), 6.16 µM.

With `Cc1ccc2c3c([nH]c2c1Cl)CNCC3` [Example 76, 7-methyl-8-chloro-1,2,3,4-tetrahydro-9H-pyrido[3,4b]-indole], the “pA2 (-log KB)” value in test [4] was 8.3.

As for `COc1ccc(C(C)C2NCCc3c2[nH]c2ccc(C)cc32)cc1OC` (single isomer, unassigned), the values for the Ki in test [1] (setting [9]), in test [2] (setting [7]) and in test [3] were 0.0301 µM, 0.00555 µM and 0.373 µM, respectively.

As to `Cc1ccc2c3c([nH]c2c1Br)CNCC3`, the Ki came to 0.0217 µM in test [3] and 0.0157 µM in test [5].

Turning to `CC(C)n1cc2c3c(cccc31)C1CC(C(=O)NC3CCCCC3)CN(C)C1C2` (stereo not drawn), the Ki in test [1] (setting [10]) was found to be 0.0151 µM; in test [5], 0.00205 µM.

Turning to `CCCN(CCC)C1CCc2cccc(C(=O)C(C)(C)C)c2C1` (single isomer, unassigned), the Ki came out at 4.75 µM in test [2] (setting [7]) and 2.23 µM in test [3].

On to `CN1CC(C(=O)NC2CCCCC2)CC2c3cccc4[nH]cc(c34)CC21` (stereo not drawn), for which the Ki was 0.019 µM in test [1] (setting [10]) and 0.00512 µM in test [5].

For `CC(C)n1cc2c3c(cccc31)C1CC(C(=O)NC3CCCCC3O)CN(C)C1C2` (stereo not drawn) [drawing 84], the figures for the Ki in test [1] (setting [10]), in test [3] (setting [11]) and in test [5] were 0.0102 µM, 0.0745 µM and 0.00891 µM, respectively.

With `Brc1cccc2c3c([nH]c12)CNCC3`, the results for the Ki in test [3] and in test [5] were 0.0227 µM and 0.0256 µM, respectively.

Regarding `CCCN(CCC)[C@@H]1CCc2cccc(-c3ccon3)c2C1`, the Ki was determined as 0.784 µM in test [2] (setting [7]) and 0.127 µM in test [3].

With `Cc1ccc2c3c([nH]c2c1Cl)CNCC3` [drawing 177], the Ki was determined as 0.00269 µM in test [1] (setting [9]), 0.00268 µM in test [2] (setting [7]), 0.0206 µM in test [3] and 0.0155 µM in test [5].

`Cc1ccc2c(CCN)c[nH]c2c1Br`: the Ki in test [1] (setting [10]) came to 0.0113 µM; in test [3] (setting [11]) it was 0.0337 µM; in test [5] it was 0.0142 µM.

`CN1CC(C(=O)N[C@H]2CC[C@H](O)CC2)CC2c3cccc4[nH]cc(c34)CC21` (stereo partly drawn): the Ki worked out at 0.0446 µM in test [1] (setting [10]), 0.0124 µM in test [2], 0.00125 µM in test [3] (setting [11]) and 0.00536 µM in test [5].

`COc1ccc(CC2NCCc3c2[nH]c2c(C)cccc32)cc1OC` (stereo not drawn) [drawing 182]: the Ki in test [2] (setting [7]) was 0.00169 µM; in test [3], 0.0497 µM.

As for `Cc1ccc2c3c([nH]c2c1C)CNCC3` [Example 72, 7,8-dimethyl-1,2,3,4-tetrahydro-9H-pyrido[3,4b]-indole], the pKi (in general, −log10 of the Ki, conventionally taken in molar units) in test [1] (Radioligand assay, Table III) was 7.8. Further, the “pA2 (-log KB)” value in test [4] is given as 7.5.

In the case of `NCCc1c[nH]c2ccc(C(N)=O)cc12`, the Ki was determined as 0.147 µM in test [1] (setting [9]), 0.128 µM in test [2] (setting [7]) and 0.12 µM in test [3].

As to `Cc1ccc2[nH]c3c(c2c1)CCNC3Cc1cccc2ccccc12` (stereo not drawn), the figures for the Ki in test [1] (setting [9]), in test [2] (setting [7]) and in test [3] were 0.00331 µM, 0.00074 µM and 0.00463 µM, respectively.

Turning to `CCc1ccc2[nH]c3c(c2c1)CCNC3Cc1ccc(OC)c(OC)c1` (stereo not drawn) [drawing 143], the Ki in test [1] (setting [9]) was 0.00816 µM; in test [2] (setting [7]), 0.0015 µM; in test [3], 0.0234 µM.

On to `CC(C)n1cc2c3c(cccc31)C1CC(C(=O)N[C@H]3CC[C@@H](O)CC3)CN(C)C1C2` (stereo partly drawn), for which the Ki in test [1] (setting [10]) was 0.0223 µM; in test [2] it was 0.0043 µM; in test [3] (setting [11]) it was 0.0113 µM; in test [5] it was 0.00157 µM.

`COc1ccc(CC2NCCc3c2[nH]c2ccc(C)cc32)c(OC)c1OC.Cl` (stereo not drawn) [Example 22, 6-methyl-1-[(2,3,4-trimethoxyphenyl)-methyl]-1,2,3,4-tetrahydro-9H-pyrido[3,4-b]indole hydrochloride]: the Ki in test [1] (Radioligand assay, Table III, read-out: pKi (converted)) was 0.00537 µM. The Kb in test [6] is 0.00617 µM. In addition, the “pA2 (-log KB)” value in test [4] came to 4.8.

In the case of `COc1ccc(CC2NCCc3c2[nH]c2c(Cl)c(C)ccc32)cc1OC` (stereo not drawn), the Ki in test [1] (setting [9]) amounted to 0.00319 µM; in test [2] (setting [7]), 0.00084 µM; in test [3], 0.00093 µM.

For `CCc1ccc2[nH]c3c(c2c1)CCNC3Cc1cccc2ccccc12` (stereo not drawn), the values for the Ki in test [2] (setting [7]) and in test [3] were 0.00208 µM and 0.00671 µM, respectively.

Consider `CCCNC1CCc2cccc(-c3ccno3)c2C1` (stereo not drawn), for which the Ki in test [2] (setting [7]) is 1.02 µM; in test [3], 6.03 µM.

As for `CCCN(CCC)[C@H]1CCc2cccc(-c3ccon3)c2C1`, the Ki in test [2] (setting [7]) came to 0.257 µM; in test [3], 5.69 µM.

As for `COc1ccc(CC2NCCc3c2[nH]c2ccc(C)cc32)c(Br)c1OC` (stereo not drawn), the Ki in test [2] is 0.00037 µM; in test [3], 0.0122 µM.

Consider `CC(C)n1cc2c3c(cccc31)C1CC(C(=O)N[C@H]3CC[C@H](O)CC3)CN(C)C1C2` (stereo partly drawn), for which the Ki stood at 0.0309 µM in test [1] (setting [10]), 0.00624 µM in test [2], 0.0212 µM in test [3] (setting [11]) and 0.00282 µM in test [5].

With `Cc1ccc2c3c([nH]c2c1I)CNCC3`, the Ki in test [1] (setting [9]) worked out at 0.0153 µM; in test [2] (setting [7]), 0.0102 µM; in test [3], 0.0178 µM.

For the compound `CC(C)n1cc2c3c(cccc31)C1CC(C(=O)NC3CCCCC3O)CN(C)C1C2` (stereo not drawn) [drawing 87], the Ki in test [1] (setting [10]) worked out at 0.00935 µM; in test [3] (setting [11]), 0.0186 µM; in test [5], 0.00244 µM.

`Cc1cc(Br)c2[nH]c3c(c2c1)CCNC3` [drawing 168]: the Ki worked out at 0.0417 µM in test [3] and 0.047 µM in test [5].

As to `CC(C)n1cc2c3c(cccc31)C1CC(C(=O)NC3CCCCC3O)CN(C)C1C2` (stereo not drawn) [drawing 86], the results for the Ki in test [1] (setting [10]), in test [3] (setting [11]) and in test [5] were 0.00861 µM, 0.0158 µM and 0.00239 µM, respectively.

For `CCCN(CCC)C1CCc2cccc(-c3ccno3)c2C1` (stereo not drawn), the Ki was 0.509 µM in test [2] (setting [7]) and 0.354 µM in test [3] (setting [8]).

`COc1ccc(CC2NCCc3c2[nH]c2ccc(C)cc32)cc1O` (stereo not drawn): the Ki in test [2] (setting [7]) was determined as 0.00147 µM; in test [3], 0.0549 µM.

As to `Cc1ccc2[nH]c3c(c2c1)CCNC3Cc1ccc(N(C)C)c2ccccc12` (stereo not drawn), the results for the Ki in test [1] (setting [9]), in test [2] (setting [7]) and in test [3] were 0.00502 µM, 0.00164 µM and 0.00083 µM, respectively.

As to `CC(C)n1cc2c3c(cccc31)C1CC(C(=O)NC3CCCCC3O)CN(C)C1C2` (stereo not drawn) [drawing 85], the Ki in test [1] (setting [10]) is 0.0114 µM; in test [3] (setting [11]) it was 0.108 µM; in test [5] it was 0.0124 µM.

`Clc1ccc2[nH]c3c(c2c1)CCNC3` [6-chloro-1,2,3,4-tetrahydro-9H-pyrido[3,4b]-indole]: the “pA2 (-log KB)” value in test [4] is 7.2.

Take `Cc1ccc2c(CCN)c[nH]c2c1Cl`: the Ki was 0.00794 µM in test [1] (setting [10]), 0.0112 µM in test [2], 0.0276 µM in test [3] (setting [11]) and 0.0207 µM in test [5].

As for `COc1ccc(C(C)C2NCCc3c2[nH]c2ccc(C(C)C)cc32)cc1OC` (stereo not drawn), the results for the Ki in test [2] (setting [7]) and in test [3] were 0.00346 µM and 0.201 µM, respectively.

Consider `CC(C)n1cc2c3c(cccc31)C1CC(C(=O)NC3CCCC3O)CN(C)C1C2` (stereo not drawn), for which the Ki stood at 0.00224 µM in test [2] (read-out: Ki Human 5-HT2B, [3H]Serotonin, 5-HT2B cells, AVG) and 0.0219 µM in test [3] (setting [11]).

For `Brc1ccc2[nH]c3c(c2c1)CCNC3` [6-bromo-1,2,3,4-tetrahydro-9H-pyrido[3,4b]-indole], in test [4], the “pA2 (-log KB)” value was found to be 8.2.

In the case of `Cc1ccc2[nH]c3c(c2c1)CCNC3C(C)c1cccc2ccccc12` (stereo not drawn), the Ki turned out to be 0.00394 µM in test [1] (setting [9]), 0.00129 µM in test [2] (setting [7]) and 0.00562 µM in test [3].

(Values after patent publication US5688807A, “Method for treating 5HT2B receptor related conditions” (Eli Lilly and Company, priority 1995, dated 1997).)
